# pIC50: −log10 of the molar value.
# Tests used:
# HCT-116 [1] = assay: Antiproliferative activity against human HCT-116 cells; format: functional, cell-based
# Caco-2 = assay: Antiproliferative activity against human Caco-2 cells; format: functional, cell-based
# HepG2 [2] = assay: Antiproliferative activity against human HepG2 cells; format: functional, cell-based
# [3] = target: Epidermal growth factor receptor (Homo sapiens, UniProt P00533); assay: Inhibition of EGFR (unknown origin)
# MDA-MB-231 = assay: Antiproliferative activity against human MDA-MB-231 cells; format: functional, cell-based
# [4] = target: T1, Vascular endothelial growth factor receptor 2 (Homo sapiens, UniProt P35968); assay: Inhibition of VEGFR2 (unknown origin)
# MCF7 [5] = assay: Antiproliferative activity against human MCF7 cells; format: functional, cell-based
# HCT-116 [6] = assay: Antiproliferative activity against human HCT-116 cells assessed as inhibition of cell growth incubated for 24 hrs by MTT assay; format: functional, cell-based; conditions: HCT-116, 24 h
# HepG2 [7] = assay: Antiproliferative activity against human HepG2 cells assessed as inhibition of cell growth incubated for 24 hrs by MTT assay; format: functional, cell-based; conditions: HepG2, 24 h
# [8] = target: T1, Vascular endothelial growth factor receptor 2; assay: Inhibition of human VEGFR-2 by ELISA method
# HCT-116 [9] = assay: Antiproliferative activity against human HCT-116 cells assessed as reduction in cell growth incubated for 24 hrs by MTT assay; format: functional, cell-based; conditions: HCT-116, 24 h
# MCF7 [10] = assay: Antiproliferative activity against human MCF7 cells assessed as inhibition of cell growth incubated for 24 hrs by MTT assay; format: functional, cell-based; conditions: MCF7, 24 h
# HepG2 [11] = assay: Cytotoxicity against human HepG2 cells assessed as reduction in cell viability incubated for 72 hrs by MTT assay; format: functional, cell-based; conditions: HepG2, 72 h
# HCT-116 [12] = assay: Cytotoxicity against human HCT-116 cells assessed as reduction in cell viability incubated for 72 hrs by MTT assay; format: functional, cell-based; conditions: HCT-116, 72 h
# MCF7 [13] = assay: Cytotoxicity against human MCF7 cells assessed as reduction in cell viability incubated for 72 hrs by MTT assay; format: functional, cell-based; conditions: MCF7, 72 h
# MCF7 [14] = assay: Cytotoxicity against human MCF7 cells assessed as reduction in cell growth incubated for 48 hrs by MTT assay; format: functional, cell-based; conditions: MCF7, 48 h
# HOP-92 = assay: Growth inhibition of human HOP-92 cells incubated for 48 hrs by sulforhodamine B assay; format: functional
# MCF7 [15] = assay: Cytotoxicity against human MCF7 cells assessed as reduction in cell viability; format: functional, cell-based
# PC-3 [16] = assay: Antiproliferative activity against human PC-3 cells assessed as reduction in cell growth; format: functional, cell-based
# PC-3 [17] = assay: Cytotoxicity against human PC-3 cells assessed as reduction in cell growth; format: toxicity, cell-based
# [18] = Cmax in human at 140 mg; format: ADME
# [19] = Tmax in human at 140 mg; format: ADME
# [20] = Half life in human at 140 mg
# [21] = target: Hepatocyte growth factor receptor (Homo sapiens, UniProt P08581); assay: Inhibition of c-Met (unknown origin)
# [22] = Cytotoxicity against human HUVEC cells assessed as reduction in cell viability by CCK-8 assay; format: toxicity, cell-based
# MHCC97H = assay: Antiproliferative activity against human MHCC97H cells assessed as reduction in cell viability incubated for 48 hrs by CCK-8 assay; format: functional, cell-based
# [23] = Cytotoxicity against African green monkey Vero cells assessed as reduction in cell viability incubated for 72 hrs by crystal violet staining based analysis; format: toxicity, Chlorocebus sabaeus
# HepG2 [24] = assay: Cytotoxicity against human HepG2 cells assessed as reduction in cell viability; format: functional, cell-based
# HCT-116 [25] = assay: Cytotoxicity against human HCT-116 cells assessed as reduction in cell viability; format: functional, cell-based
# MDA-MB-435 = assay: Cytotoxicity against human MDA-MB-435 cells assessed as reduction in cell growth measured for 72 hrs by MTT assay; format: functional, cell-based; conditions: MDA-MB-435, 72 h
# PC-3 [26] = assay: Cytotoxicity against human PC-3 cells assessed as reduction in cell viability incubated for 72 hrs by MTT assay; format: functional, cell-based; conditions: PC-3, 72 h
# DU-145 = assay: Cytotoxicity against human DU-145 cells assessed as reduction in cell viability incubated for 72 hrs by MTT assay; format: functional, cell-based; conditions: DU-145, 72 h
# T1 sequence (P35968 whole entry): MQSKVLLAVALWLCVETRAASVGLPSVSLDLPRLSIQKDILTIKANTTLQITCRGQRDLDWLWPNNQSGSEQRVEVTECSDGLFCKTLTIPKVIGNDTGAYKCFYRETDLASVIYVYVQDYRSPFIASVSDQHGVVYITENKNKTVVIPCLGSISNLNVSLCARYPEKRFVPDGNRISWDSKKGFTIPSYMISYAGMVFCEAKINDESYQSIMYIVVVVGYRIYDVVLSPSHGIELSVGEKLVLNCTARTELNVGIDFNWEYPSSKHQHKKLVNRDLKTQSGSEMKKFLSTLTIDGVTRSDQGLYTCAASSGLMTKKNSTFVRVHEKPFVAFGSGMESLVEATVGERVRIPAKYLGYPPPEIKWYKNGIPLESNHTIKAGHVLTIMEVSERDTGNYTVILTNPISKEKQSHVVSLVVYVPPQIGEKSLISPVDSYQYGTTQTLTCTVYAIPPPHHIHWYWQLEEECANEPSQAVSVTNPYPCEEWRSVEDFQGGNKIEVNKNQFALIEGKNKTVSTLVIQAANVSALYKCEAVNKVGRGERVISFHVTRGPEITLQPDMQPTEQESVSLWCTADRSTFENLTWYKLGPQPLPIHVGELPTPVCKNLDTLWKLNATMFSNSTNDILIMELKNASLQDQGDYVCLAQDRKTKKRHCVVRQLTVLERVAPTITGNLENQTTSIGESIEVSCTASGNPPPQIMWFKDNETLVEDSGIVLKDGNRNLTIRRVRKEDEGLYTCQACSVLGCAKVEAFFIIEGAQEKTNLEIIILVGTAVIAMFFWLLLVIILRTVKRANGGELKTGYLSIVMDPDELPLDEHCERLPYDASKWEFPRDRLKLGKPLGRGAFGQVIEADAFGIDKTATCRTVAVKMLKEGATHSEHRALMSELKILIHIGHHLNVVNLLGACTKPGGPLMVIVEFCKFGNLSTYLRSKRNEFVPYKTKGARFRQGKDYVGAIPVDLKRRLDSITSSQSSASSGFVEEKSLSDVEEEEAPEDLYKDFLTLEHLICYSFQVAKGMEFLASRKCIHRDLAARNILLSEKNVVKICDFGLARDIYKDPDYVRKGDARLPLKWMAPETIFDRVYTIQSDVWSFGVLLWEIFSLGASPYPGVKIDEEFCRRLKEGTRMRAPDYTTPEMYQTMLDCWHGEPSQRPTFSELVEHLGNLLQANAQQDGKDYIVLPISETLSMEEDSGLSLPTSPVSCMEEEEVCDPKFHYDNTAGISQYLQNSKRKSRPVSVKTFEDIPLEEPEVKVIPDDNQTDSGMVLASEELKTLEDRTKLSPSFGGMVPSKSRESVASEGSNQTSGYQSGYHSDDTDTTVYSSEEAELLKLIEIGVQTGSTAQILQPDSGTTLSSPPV
# Epidermal growth factor receptor, sequence (P00533 whole entry): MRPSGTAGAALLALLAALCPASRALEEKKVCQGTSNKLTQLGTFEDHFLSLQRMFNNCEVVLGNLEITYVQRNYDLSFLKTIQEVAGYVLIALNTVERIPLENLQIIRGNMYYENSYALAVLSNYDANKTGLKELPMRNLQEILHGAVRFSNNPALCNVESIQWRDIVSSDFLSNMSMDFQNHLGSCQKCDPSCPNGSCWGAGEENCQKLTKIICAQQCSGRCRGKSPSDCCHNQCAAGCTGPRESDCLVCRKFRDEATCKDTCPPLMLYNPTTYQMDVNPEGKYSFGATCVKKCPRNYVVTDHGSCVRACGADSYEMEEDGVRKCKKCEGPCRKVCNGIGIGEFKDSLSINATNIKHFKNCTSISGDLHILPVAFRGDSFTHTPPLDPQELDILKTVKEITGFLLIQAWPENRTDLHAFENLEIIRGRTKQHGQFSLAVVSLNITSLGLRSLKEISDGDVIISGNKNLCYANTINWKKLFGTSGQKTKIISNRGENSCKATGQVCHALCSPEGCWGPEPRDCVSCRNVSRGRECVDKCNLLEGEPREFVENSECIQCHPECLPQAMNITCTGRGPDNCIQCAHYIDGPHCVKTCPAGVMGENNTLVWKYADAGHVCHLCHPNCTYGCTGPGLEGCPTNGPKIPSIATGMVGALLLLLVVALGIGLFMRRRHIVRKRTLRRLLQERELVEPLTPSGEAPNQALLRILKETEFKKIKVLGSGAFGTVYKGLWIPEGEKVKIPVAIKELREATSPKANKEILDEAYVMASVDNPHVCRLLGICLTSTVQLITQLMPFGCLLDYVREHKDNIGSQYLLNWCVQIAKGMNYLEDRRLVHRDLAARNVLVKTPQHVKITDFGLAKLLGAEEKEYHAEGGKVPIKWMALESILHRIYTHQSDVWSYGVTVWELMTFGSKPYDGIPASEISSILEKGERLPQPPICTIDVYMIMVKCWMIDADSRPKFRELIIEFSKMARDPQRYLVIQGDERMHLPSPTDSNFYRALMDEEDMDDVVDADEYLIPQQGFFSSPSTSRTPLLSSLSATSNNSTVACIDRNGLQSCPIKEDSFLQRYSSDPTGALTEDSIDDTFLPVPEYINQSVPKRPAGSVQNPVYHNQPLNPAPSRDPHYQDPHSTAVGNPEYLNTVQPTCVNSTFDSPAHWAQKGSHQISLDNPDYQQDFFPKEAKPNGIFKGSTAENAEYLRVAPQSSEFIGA
# Hepatocyte growth factor receptor, sequence (P08581 whole entry): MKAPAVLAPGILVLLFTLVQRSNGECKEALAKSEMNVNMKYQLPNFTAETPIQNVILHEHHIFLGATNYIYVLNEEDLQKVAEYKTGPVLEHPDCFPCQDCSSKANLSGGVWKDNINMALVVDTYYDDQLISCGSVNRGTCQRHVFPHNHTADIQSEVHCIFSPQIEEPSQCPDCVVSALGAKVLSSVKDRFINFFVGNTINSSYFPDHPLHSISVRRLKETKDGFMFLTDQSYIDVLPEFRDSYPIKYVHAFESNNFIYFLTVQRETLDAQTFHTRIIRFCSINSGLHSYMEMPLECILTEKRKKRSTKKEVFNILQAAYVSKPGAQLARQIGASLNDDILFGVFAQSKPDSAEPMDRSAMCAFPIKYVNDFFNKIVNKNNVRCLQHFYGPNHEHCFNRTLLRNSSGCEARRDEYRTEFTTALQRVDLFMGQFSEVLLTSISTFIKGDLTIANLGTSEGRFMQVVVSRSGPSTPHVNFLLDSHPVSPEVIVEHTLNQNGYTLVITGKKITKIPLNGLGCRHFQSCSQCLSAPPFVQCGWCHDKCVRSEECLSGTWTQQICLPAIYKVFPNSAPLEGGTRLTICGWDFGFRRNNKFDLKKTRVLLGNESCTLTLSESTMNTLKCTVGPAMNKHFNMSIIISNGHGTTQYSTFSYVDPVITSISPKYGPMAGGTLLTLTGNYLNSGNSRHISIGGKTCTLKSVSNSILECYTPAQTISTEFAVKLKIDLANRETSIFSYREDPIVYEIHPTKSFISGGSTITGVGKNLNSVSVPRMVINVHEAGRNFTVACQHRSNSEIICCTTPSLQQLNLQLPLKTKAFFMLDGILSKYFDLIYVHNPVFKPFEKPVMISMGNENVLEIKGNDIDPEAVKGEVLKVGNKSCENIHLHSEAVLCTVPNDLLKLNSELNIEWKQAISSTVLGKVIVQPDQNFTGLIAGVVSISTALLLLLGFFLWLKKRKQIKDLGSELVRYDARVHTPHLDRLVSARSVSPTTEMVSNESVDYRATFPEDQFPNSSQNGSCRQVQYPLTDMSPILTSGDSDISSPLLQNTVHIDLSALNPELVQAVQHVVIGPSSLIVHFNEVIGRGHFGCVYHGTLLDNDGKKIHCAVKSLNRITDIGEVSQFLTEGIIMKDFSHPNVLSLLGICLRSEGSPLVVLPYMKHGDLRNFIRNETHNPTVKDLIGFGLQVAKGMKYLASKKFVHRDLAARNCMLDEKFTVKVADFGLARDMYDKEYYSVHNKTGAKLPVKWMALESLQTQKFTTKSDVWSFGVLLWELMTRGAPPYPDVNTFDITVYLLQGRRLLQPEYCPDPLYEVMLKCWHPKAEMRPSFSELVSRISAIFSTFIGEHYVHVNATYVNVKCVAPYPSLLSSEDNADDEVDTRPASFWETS
structure (smiles),measurement,setting,value
COc1ccc(-c2cc(-c3ccc(C)cc3)nc(NN)n2)cc1,pIC50,HCT-116 [1],4.51
same,pIC50,Caco-2,4.89
same,pIC50,HepG2 [2],4.74
same,pIC50,[3],7.15
same,pIC50,MDA-MB-231,4.62
same,pIC50,[4],7.01
same,pIC50,MCF7 [5],5.11
C/C(=N\NC(=O)c1ccccc1O)c1ccc(NC(=O)CSc2nc3ccccc3c(=O)n2-c2ccccc2)cc1,pIC50,HCT-116 [6],5.17
same,pIC50,HepG2 [7],5.43
same,pIC50,[8],6.47
same,pIC50,HCT-116 [9],5.43
same,pIC50,MCF7 [10],5.30
CCOC(=O)c1ccc(NC(=O)c2ccc(NC(=O)CN3C(=O)S/C(=C\c4ccccc4)C3=O)cc2)cc1,pIC50,HepG2 [11],4.95
same,pIC50,HCT-116 [12],5.05
same,pIC50,MCF7 [13],5.15
CC1=NN(c2ccc([N+](=O)[O-])cc2[N+](=O)[O-])C(=O)/C1=C\c1cn(-c2ccccc2)nc1-c1cccc([N+](=O)[O-])c1,pIC50,MCF7 [14],4.78
Cc1ccc(S(=O)(=O)Nc2ccc(-c3cc(-c4cccc(F)c4)c(C#N)c(N)n3)cc2)cc1,GI50,HOP-92,1.06 µM
Cc1ccc2oc(CCCC(=O)Nc3ccc(S(=O)(=O)NC(=O)NC4CCCCC4)cc3)nc2c1,pIC50,MCF7 [15],5.26
same,pIC50,[4],7.15
N#CCc1nnc(NC(=O)c2ccco2)s1,pIC50,PC-3 [16],8.04
same,pIC50,PC-3 [17],7.16
COc1cc2nccc(Oc3ccc(NC(=O)C4(C(=O)Nc5ccc(F)cc5)CC4)cc3)c2cc1OC [CABOZANTINIB],Cmax,[18],554 ng/mL
same,Tmax,[19],4 h
same,half-life,[20],112 h
COCCOc1cc2ncnc(Nc3ccc(NC(=O)CC(=O)Nc4ccc(F)cc4)cc3F)c2c2c1OCCO2,pIC50,[21],8.24
same,pIC50,[4],8.32
same,pIC50,[22],9.10
same,pIC50,MHCC97H,7.80
Cc1nc2ccccc2n(CC(=O)Nc2ccc(C(=O)NCc3ccccc3)cc2)c1=O,IC50 at 72 h,[23],11.8 µM
same,pIC50,HepG2 [24],5.28
same,pIC50,HCT-116 [25],5.66
COc1cc(-c2cc(-c3ccc4ccccc4c3)nc(NN)c2C#N)ccc1O,pIC50,MDA-MB-435,7.02
same,pIC50,PC-3 [26],7.26
same,pIC50,DU-145,8.07
